{
  "source": "patent US12240834B2",
  "about": "“Polymorphs of [2-(1H-indol-3-yl)-1H-imidazol-4-yl] (3,4,5-trimethoxyphenyl)methanone and its salts” (VERU INC., priority 2022, dated 2025)",
  "key": {"[1]": {"test": "Polymorph screen summary of forms (stability designation)", "assay_type": "physicochemical", "source_text": "Polymorphism is the ability of a chemical entity to exist in different three-dimensional arrangements in the solid state. Different polymorphic forms of a compound can have different physical properties. […] The screen was designed to prepare as many novel crystalline forms as possible and characterize these polymorphs for use in a pharmaceutical product. […] Samples generated during the study were characterized using differential scanning calorimetry (DSC), polarized light microscopy, thermogravimetric analysis (TGA), X-ray powder diffraction (XRD), Fourier transform infrared spectroscopy (FT-IR), and dynamic vapor sorption (DVS). […] These were essentially the same except for minor changes in the diffraction pattern and DSC thermograms. […] The HCl salt was characterized polymorphic as multiple polymorphic forms were made and characterized as described below. […] Based on diffraction behavior, each polymorphic form was studied to determine differentiation. The characterization of each hydrochloride polymorph form began with an X-ray powder diffraction (XRD) data comparison of each form with the other forms. This was generally followed by DSC and TGA analysis."}, "[2]": {"test": "Non-competitive slurry experiments (solid form stability, XRD readout)", "assay_type": "physicochemical", "conditions": "ambient temperature", "experimental": "In addition to the solvent recrystallization experiments (Example 3), non-competitive slurry (Example 4) and competitive slurry (Example 5) experiments were performed to make new solid-state forms. Non-competitive slurry experiments were performed to search for new solid-state forms. These experiments relied on solubility differences of different polymorphic forms (if the compound is polymorphic).\nThe solution is saturated with respect to the polymorphic form dissolved. […] In addition, noncompetitive slurry experiments are often useful in identifying solvents that form solvates with the compound.\nThe slurry experiments were performed by exposing excess starting material, which was in all cases in this experiment Form B, to neat single and binary solvent systems and agitating the resulting suspensions for several days at ambient temperature. The solids were vacuum filtered and analyzed by XRD to determine the resulting form. To avoid possible desolvation or physical change after isolation, the samples were not further dried before X-ray analysis."}, "[3]": {"test": "Storage of solid forms at ambient conditions (form conversion)"}, "[4]": {"test": "Hygroscopicity by dynamic vapor sorption (DVS)", "assay_type": "physicochemical", "conditions": "for DVS behaviour: moisture adsorption-desorption", "experimental": "Hygroscopicity—Dynamic Vapor Sorption (DVS)\nDVS is a gravimetric technique that measures how quickly and how much of a solvent (water) is absorbed by a sample. The relative humidity or vapor concentration surrounding the sample is varied while the change in mass of the sample is measured. […] The mass values at each relative humidity step are used to generate an isotherm. Isotherms are divided in two components: sorption for increasing humidity steps and desorption for decreasing humidity steps. A plot of kinetic data is also used to show the change in mass and humidity as a function of time.\nThe samples were analyzed using a TA Q5000 automated dynamic vapor sorption analyzer. The samples were dried at higher temperature than ambient over a period of time and then cooled to 25° C. with a dry nitrogen purge over them until they no longer lost mass at 0% RH (relative humidity). The samples were then subjected to 0 to 90% RH, back to 10% RH at 25° C. in 10% RH steps."}},
  "data": [
    {"compound": "COc1cc(C(=O)c2c[nH]c(-c3c[nH]c4ccccc34)n2)cc(OC)c1OC.Cl", "note": "[Form GH]", "values": [
      {"measurement": "Description (stability / hydrate designation of the form)", "setting": "[1]", "value": "Hydrate"}
    ]},
    {"compound": "COc1cc(C(=O)c2c[nH]c(-c3c[nH]c4ccccc34)n2)cc(OC)c1OC.Cl", "note": "[Form B]", "values": [
      {"measurement": "Final Form", "setting": "[2]; 1-Propanol/EtOAc slurry, 11 Days", "value": "Form E1"},
      {"measurement": "Final Form", "setting": "[2]; 2-Propanol/THF slurry, 11 Days", "value": "Form E1"},
      {"measurement": "Final Form", "setting": "[2]; ACN/Acetone slurry, 11 Days", "value": "Form E1"},
      {"measurement": "Final Form", "setting": "[2]; Acetone slurry, 14 Days", "value": "Form D"},
      {"measurement": "Final Form", "setting": "[2]; Acetonitrile slurry, 14 Days", "value": "Form D"},
      {"measurement": "Final Form", "setting": "[2]; Ethanol slurry, 14 Days", "value": "Solvate"},
      {"measurement": "Final Form", "setting": "[2]; Ethanol/Toluene slurry, 11 Days", "value": "Form E1"},
      {"measurement": "Final Form", "setting": "[2]; Ethanol/acetonitrile slurry, 11 Days", "value": "Form E1"},
      {"measurement": "Final Form", "setting": "[2]; Ethyl acetate slurry, 14 Days", "value": "Form B"},
      {"measurement": "Final Form", "setting": "[2]; Heptane slurry, 14 Days", "value": "Form B"},
      {"measurement": "Final Form", "setting": "[2]; MeOH/Acetone slurry, 11 Days", "value": "Low crystallinity"},
      {"measurement": "Final Form", "setting": "[2]; Methanol slurry, 14 Days", "value": "Solvate"},
      {"measurement": "Final Form", "setting": "[2]; Methanol/DCM slurry, 11 Days", "value": "Solvate"},
      {"measurement": "Final Form", "setting": "[2]; Methanol/Water slurry, 11 Days", "value": "Low crystallinity"},
      {"measurement": "Final Form", "setting": "[2]; Methylene chloride slurry, 14 Days", "value": "Form B"},
      {"measurement": "Final Form", "setting": "[2]; TFE/DCM slurry, 11 Days", "value": "Form B"},
      {"measurement": "Final Form", "setting": "[2]; TFE/EtOAc slurry, 11 Days", "value": "Low order"},
      {"measurement": "Final Form", "setting": "[2]; THF slurry, 14 Days", "value": "Form B"},
      {"measurement": "Final Form", "setting": "[2]; Toluene slurry, 14 Days", "value": "Form B"},
      {"measurement": "Final Form", "setting": "[2]; Water slurry, 14 Days", "value": "Low Crystallinity"},
      {"measurement": "Description (stability / hydrate designation of the form)", "setting": "[1]", "value": "Metastable"}
    ]},
    {"compound": "COc1cc(C(=O)c2c[nH]c(-c3c[nH]c4ccccc34)n2)cc(OC)c1OC.Cl", "note": "[Form D]", "values": [
      {"measurement": "Description (stability / hydrate designation of the form)", "setting": "[1]", "value": "Metastable"}
    ]},
    {"compound": "COc1cc(C(=O)c2c[nH]c(-c3c[nH]c4ccccc34)n2)cc(OC)c1OC", "note": "[free base (Form I)]", "values": [
      {"measurement": "form resulting from slurry (XRD)", "setting": "[2]; slurried in acetone, THF or toluene, several days", "value": "Form II"}
    ]},
    {"compound": "COc1cc(C(=O)c2c[nH]c(-c3c[nH]c4ccccc34)n2)cc(OC)c1OC.Cl", "note": "[Form FH]", "values": [
      {"measurement": "Description (stability / hydrate designation of the form)", "setting": "[1]", "value": "Hydrate"}
    ]},
    {"compound": "COc1cc(C(=O)c2c[nH]c(-c3c[nH]c4ccccc34)n2)cc(OC)c1OC.Cl", "note": "[Form I]", "values": [
      {"measurement": "form conversion on storage", "setting": "[3]; after a month of storage at ambient conditions", "value": "converted to a mixture of Form CH and Form H"},
      {"measurement": "Description (stability / hydrate designation of the form)", "setting": "[1]", "value": "Metastable"}
    ]},
    {"compound": "COc1cc(C(=O)c2c[nH]c(-c3c[nH]c4ccccc34)n2)cc(OC)c1OC.Cl", "note": "[Form CH]", "values": [
      {"measurement": "water uptake (DVS)", "setting": "[4]; at high humidity, returned to starting mass upon completion of the scan", "value": "up to 0.95 wt %"},
      {"measurement": "DVS behaviour", "setting": "[4]", "value": "very low uptake of water adsorption"},
      {"measurement": "Description (stability / hydrate designation of the form)", "setting": "[1]", "value": "Monohydrate"}
    ]},
    {"compound": "COc1cc(C(=O)c2c[nH]c(-c3c[nH]c4ccccc34)n2)cc(OC)c1OC.Cl", "note": "[Form H]", "values": [
      {"measurement": "form conversion on holding at ambient conditions", "setting": "[3]; held at ambient conditions", "value": "not observed to convert to any other polymorphic form"},
      {"measurement": "Description (stability / hydrate designation of the form)", "setting": "[1]", "value": "Stable Form"}
    ]},
    {"compound": "COc1cc(C(=O)c2c[nH]c(-c3c[nH]c4ccccc34)n2)cc(OC)c1OC.Cl", "note": "[Form A]", "values": [
      {"measurement": "total weight gain (DVS)", "setting": "[4]; at 90% RH", "value": "about 0.4%"},
      {"measurement": "DVS behaviour", "setting": "[4]", "value": "very hydrophobic and does not appear to be prone to hydrate formation"},
      {"measurement": "Description (stability / hydrate designation of the form)", "setting": "[1]", "value": "Metastable"}
    ]}
  ]
}
